{"source": "paper PMC9276671", "about": "“A first-in-human Phase I dose-escalation trial of the novel therapeutic peptide, ALM201, demonstrates a favourable safety profile in unselected patients with ovarian cancer and other advanced solid tumours” (British Journal of Cancer, 2022)", "assay": "Plasma pharmacokinetics of ALM201 in Phase I patients (validated LC-MS/MS, Phoenix WinNonlin)", "settings": "human, plasma, sc; for Tmax: median; for Tmax / AUC(0-t) / Cmax: plasma LC-MS/MS; for AUC(0-t): AUC0-t; for AUC(0-t) / Cmax: Gmean (CV)", "key": {"[1]": {"settings": "300 mg, 300 mg SC, day 1 cycle 1, n = 3"}, "[2]": {"settings": "300 mg, 300 mg SC, day 3 cycle 1, n = 3"}, "[3]": {"settings": "300 mg, 300 mg SC, day 18 cycle 2, n = 3"}, "[4]": {"settings": "300 mg, 300 mg SC, day 18 cycle 4, n = 1"}, "[5]": {"settings": "300 mg, 300 mg SC, day 18 cycle 6, n = 1"}}, "note": "No end group written: not given here."}
{"sequence": "IRQQPRDPPTETLELEVSPDPAS [ALM201]", "values": [{"measurement": "level at 6 h", "setting": "200 mg, Plasma concentration, geometric mean (CV%), 200 mg SC, day 1 cycle 1, 6 h after dosing, n = 4, LC-MS/MS", "value": 518, "unit": "ng/mL"}, {"measurement": "level at 0.5 h", "setting": "200 mg, Plasma concentration, geometric mean (CV%), 200 mg SC, day 3 cycle 1, 0.5 h after dosing, n = 4, LC-MS/MS", "value": 1090, "unit": "ng/mL"}, {"measurement": "level at 1 h", "setting": "200 mg, Plasma concentration, geometric mean (CV%), 200 mg SC, day 3 cycle 1, 1 h after dosing, n = 3, LC-MS/MS", "value": 1410, "unit": "ng/mL"}, {"measurement": "level at 1.5 h", "setting": "200 mg, Plasma concentration, geometric mean (CV%), 200 mg SC, day 3 cycle 1, 1.5 h after dosing, n = 4, LC-MS/MS", "value": 1320, "unit": "ng/mL"}, {"measurement": "level at 2 h", "setting": "200 mg, Plasma concentration, geometric mean (CV%), 200 mg SC, day 3 cycle 1, 2 h after dosing, n = 4, LC-MS/MS", "value": 1540, "unit": "ng/mL"}, {"measurement": "level at 3.5 h", "setting": "200 mg, Plasma concentration, geometric mean (CV%), 200 mg SC, day 3 cycle 1, 3.5 h after dosing, n = 4, LC-MS/MS", "value": 1250, "unit": "ng/mL"}, {"measurement": "level at 5 h", "setting": "200 mg, Plasma concentration, geometric mean (CV%), 200 mg SC, day 3 cycle 1, 5 h after dosing, n = 4, LC-MS/MS", "value": 958, "unit": "ng/mL"}, {"measurement": "level at 0.5 h", "setting": "200 mg, Plasma concentration, geometric mean (CV%), 200 mg SC, day 18 cycle 1, 0.5 h after dosing, n = 3, LC-MS/MS", "value": 811, "unit": "ng/mL"}, {"measurement": "level at 1 h", "setting": "200 mg, Plasma concentration, geometric mean (CV%), 200 mg SC, day 18 cycle 1, 1 h after dosing, n = 3, LC-MS/MS", "value": 1260, "unit": "ng/mL"}, {"measurement": "level at 1.5 h", "setting": "200 mg, Plasma concentration, geometric mean (CV%), 200 mg SC, day 18 cycle 1, 1.5 h after dosing, n = 2 values (CV NC), LC-MS/MS", "value": 1670, "unit": "ng/mL"}, {"measurement": "level at 2 h", "setting": "200 mg, Plasma concentration, geometric mean (CV%), 200 mg SC, day 18 cycle 1, 2 h after dosing, n = 2 values (CV NC), LC-MS/MS", "value": 1580, "unit": "ng/mL"}, {"measurement": "level at 3.5 h", "setting": "200 mg, Plasma concentration, geometric mean (CV%), 200 mg SC, day 18 cycle 1, 3.5 h after dosing, n = 3, LC-MS/MS", "value": 1130, "unit": "ng/mL"}, {"measurement": "level at 5 h", "setting": "200 mg, Plasma concentration, geometric mean (CV%), 200 mg SC, day 18 cycle 1, 5 h after dosing, n = 3, LC-MS/MS", "value": 890, "unit": "ng/mL"}, {"measurement": "level at 0.5 h", "setting": "200 mg, Plasma concentration, geometric mean (CV%), 200 mg SC, day 18 cycle 2, 0.5 h after dosing, n = 2, LC-MS/MS", "value": 1210, "unit": "ng/mL"}, {"measurement": "level at 1 h", "setting": "200 mg, Plasma concentration, geometric mean (CV%), 200 mg SC, day 18 cycle 2, 1 h after dosing, n = 2, LC-MS/MS", "value": 1470, "unit": "ng/mL"}, {"measurement": "level at 1.5 h", "setting": "200 mg, Plasma concentration, geometric mean (CV%), 200 mg SC, day 18 cycle 2, 1.5 h after dosing, n = 2, LC-MS/MS", "value": 1890, "unit": "ng/mL"}, {"measurement": "level at 2 h", "setting": "200 mg, Plasma concentration, geometric mean (CV%), 200 mg SC, day 18 cycle 2, 2 h after dosing, n = 2, LC-MS/MS", "value": 1360, "unit": "ng/mL"}, {"measurement": "level at 3.5 h", "setting": "200 mg, Plasma concentration, geometric mean (CV%), 200 mg SC, day 18 cycle 2, 3.5 h after dosing, n = 2, LC-MS/MS", "value": 911, "unit": "ng/mL"}, {"measurement": "level at 5 h", "setting": "200 mg, Plasma concentration, geometric mean (CV%), 200 mg SC, day 18 cycle 2, 5 h after dosing, n = 2, LC-MS/MS", "value": 690, "unit": "ng/mL"}, {"measurement": "level at 0.5 h", "setting": "200 mg, Plasma concentration, geometric mean (CV%), 200 mg SC, day 18 cycle 4, 0.5 h after dosing, n = 2, LC-MS/MS", "value": 1080, "unit": "ng/mL"}, {"measurement": "level at 1 h", "setting": "200 mg, Plasma concentration, geometric mean (CV%), 200 mg SC, day 18 cycle 4, 1 h after dosing, n = 2, LC-MS/MS", "value": 1410, "unit": "ng/mL"}, {"measurement": "level at 1.5 h", "setting": "200 mg, Plasma concentration, geometric mean (CV%), 200 mg SC, day 18 cycle 4, 1.5 h after dosing, n = 2, LC-MS/MS", "value": 1150, "unit": "ng/mL"}, {"measurement": "level at 2 h", "setting": "200 mg, Plasma concentration, geometric mean (CV%), 200 mg SC, day 18 cycle 4, 2 h after dosing, n = 2, LC-MS/MS", "value": 1500, "unit": "ng/mL"}, {"measurement": "level at 3.5 h", "setting": "200 mg, Plasma concentration, geometric mean (CV%), 200 mg SC, day 18 cycle 4, 3.5 h after dosing, n = 2, LC-MS/MS", "value": 1310, "unit": "ng/mL"}, {"measurement": "level at 5 h", "setting": "200 mg, Plasma concentration, geometric mean (CV%), 200 mg SC, day 18 cycle 4, 5 h after dosing, n = 2, LC-MS/MS", "value": 975, "unit": "ng/mL"}, {"measurement": "Tmax", "setting": "200 mg, 200 mg SC, day 1 cycle 1, n = 4", "value": 2.5, "unit": "h"}, {"measurement": "Tmax", "setting": "200 mg, 200 mg SC, day 3 cycle 1, n = 4", "value": 2, "unit": "h"}, {"measurement": "Tmax", "setting": "200 mg, 200 mg SC, day 18 cycle 1, n = 3", "value": 2.03, "unit": "h"}, {"measurement": "Tmax", "setting": "200 mg, 200 mg SC, day 18 cycle 2, n = 2", "value": 1.54, "unit": "h"}, {"measurement": "Tmax", "setting": "200 mg, 200 mg SC, day 18 cycle 4, n = 2", "value": 1.57, "unit": "h"}, {"measurement": "AUC(0-t)", "setting": "[1]", "value": 11900, "unit": "ng·h/mL"}, {"measurement": "AUC(0-t)", "setting": "[2]", "value": 12500, "unit": "ng·h/mL"}, {"measurement": "AUC(0-t)", "setting": "[3]", "value": 10400, "unit": "ng·h/mL"}, {"measurement": "AUC(0-t)", "setting": "[4]", "value": 8600, "unit": "ng·h/mL"}, {"measurement": "AUC(0-t)", "setting": "[5]", "value": 26700, "unit": "ng·h/mL"}, {"measurement": "Cmax", "setting": "[1]", "value": 2550, "unit": "ng/mL"}, {"measurement": "Cmax", "setting": "[2]", "value": 2690, "unit": "ng/mL"}, {"measurement": "Cmax", "setting": "300 mg, 300 mg SC, day 18 cycle 1, n = 3", "value": 2880, "unit": "ng/mL"}, {"measurement": "Cmax", "setting": "[3]", "value": 2780, "unit": "ng/mL"}, {"measurement": "Cmax", "setting": "[4]", "value": 2140, "unit": "ng/mL"}, {"measurement": "Cmax", "setting": "[5]", "value": 6830, "unit": "ng/mL"}, {"measurement": "level at 0.25 h", "setting": "300 mg, Plasma concentration, geometric mean (CV%), 300 mg SC, day 1 cycle 1, 0.25 h after dosing, n = 3, LC-MS/MS", "value": 1050, "unit": "ng/mL"}, {"measurement": "level at 0.75 h", "setting": "300 mg, Plasma concentration, geometric mean (CV%), 300 mg SC, day 1 cycle 1, 0.75 h after dosing, n = 3, LC-MS/MS", "value": 1970, "unit": "ng/mL"}, {"measurement": "level at 1.5 h", "setting": "300 mg, Plasma concentration, geometric mean (CV%), 300 mg SC, day 1 cycle 1, 1.5 h after dosing, n = 3, LC-MS/MS", "value": 2250, "unit": "ng/mL"}]}
